We go through two compounds from PMC7311396, “Ultra-large chemical libraries for the discovery of high-affinity peptide binders” (Nature Communications, 2020).

Non-standard residues stand in square brackets, D forms with d. Residues, ends and D or L forms follow the SMILES beside them.

For assay [1], the system named is 12ca5. The assay is described as follows: Magnetic bead affinity capture of 12ca5-binding peptides, recovery by nLC-MS. Details: species or system mouse. As to the method:
Identification of binders from high-diversity libraries would necessitate their efficient recovery at high dilution. To assess the utility of magnetic bead-based affinity capture for this purpose, we investigated the recovery of a number of peptide binders with varying affinity for anti-HA mAb clone 12ca5 (12ca5), which recognizes the linear motif DXXDYA (Supplementary Figs. 1–6; Supplementary Table 1). In these experiments, streptavidin-coated magnetic beads (1 mg; 0.13 nmol IgG binding capacity) functionalized with biotinylated 12ca5 were incubated with mixtures of 12ca5-binding peptides (either 1 nM/peptide, 100 pM/peptide, or 10 pM/peptide; 1 mL scale). The magnetic beads were isolated, washed with buffer, and treated with chemical denaturant to elute bound peptides. A portion of this eluate (~2%) was subjected to nLC-MS analysis, and recovery was quantified using normalized MS response. To calculate recovery, a separate dose-response curve was generated for each peptide, since their MS responses varied by ~5-fold (Supplementary Fig. 7). […]

The test system of a further assay is anti-HA mAb clone 12ca5. The assay is described as follows: Competition fluorescence polarization of HA epitope and analogues. In kind it is binding. Conditions: for IC50: competition FP, 100 nM 12ca5, 28 nM YPYDVPDYAK(FITC)-CONH2, 1 mg/mL BSA, 0.02% Tween 20, 1x PBS, RT, read after 1 h; for Kd: from competition FP, 100 nM 12ca5, 28 nM FITC tracer. As to the method:
Competition fluorescence polarization of HA epitope and analogues:
Solutions of unlabeled peptides (~1 mg/mL each; Supplementary Table 1) in 1x PBS was prepared in the presence of 100 nM 12ca5, 1 mg/mL BSA, 0.02% Tween 20 (120 μL). Fluorescent competitor was added (YPYDVPDYAK(FITC)α-CONH2; 28 nM).
The resulting solution was diluted serially (20 μL) into 100 nM 12ca5, 28 nM […]
YPYDVPDYAK(FITC)α-CONH2, 1 mg/mL BSA, 0.02% Tween 20 in 1x PBS (80 μL; […]
5-fold dilutions). The resulting solutions were transferred to a 96 well plate (Greiner Bio- […]
(RT), and read after 1 h on a Tecan Infinite M1000 plate reader (470 nm excitation; 517 nm detection; 5 nm bandwidth). The concentration of fluorescent […] was determined based on absorbance at 490 nm, using ε = 76,900 M-1cm-1.
Competition fluorescence polarization of HA epitope Ala scan mutants:
Competition fluorescence polarization experiments were carried out as described in Competition fluorescence polarization of HA epitope and analogues.
Background: Polarisation of emitted light reports the rotation of a fluorescent probe.

Assay [2] deals with 12ca5. The assay is described as follows: Affinity selection from 10^8-member library against 12ca5 with exogenous competitor. Conditions: 10 pM/member, 0.13 nmol 12ca5.

Broadly, the IC50 is the concentration that gives 50% inhibition. The low end stands for greater potency in that assay, the high end for weaker potency in that assay. The term Kd denotes the free concentration of one partner at which half of the binding sites on the other are occupied at equilibrium, for simple one-to-one binding. A higher Kd goes with weaker binding. In turn, `C[C@H](NC(=O)[C@H](Cc1ccc(O)cc1)NC(=O)[C@H](CC(=O)O)NC(=O)[C@H](CCC(=O)O)NC(=O)[C@H](Cc1ccc(O)cc1)NC(=O)[C@H](CC(=O)O)NC(=O)[C@@H](N)Cc1ccccc1)C(=O)N[C@@H](CCC(=O)O)C(=O)N[C@@H](Cc1c[nH]c2ccccc12)C(=O)N[C@@H](CCCCN)C(N)=O` [FDYEDYAEWK] (H-FDYEDYAEWK-NH2) registered a recovery with 12ca5 [1] (1 mg 12ca5-functionalized beads, 1 mL, 1 nM to 10 pM/peptide, 1 h 4 °C, 3 PBS washes (~6 min), normalized MS response) of 33%. In addition, in the assay with 12ca5 [1] (based on koff = 3.0 × 10^−3 s^−1 and total wash time of ~6 min), the “recovery expected based on measured dissociation rate” value came out at 34%. In the assay on anti-HA mAb clone 12ca5, the IC50 was found to be 590 ± 190 nM and the Kd stood at 25 ± 13 nM.

For the compound `NCC(=O)N[C@H](Cc1ccc(O)cc1)C(=O)N1CCC[C@@H]1C(=O)N[C@H](Cc1ccc(O)cc1)C(=O)N[C@H](CCC(=O)O)C(=O)N[C@H](Cc1ccc(O)cc1)C(=O)N[C@H](CC(=O)O)C(=O)N[C@H](Cc1c[nH]c2ccccc12)C(=O)N[C@H](CCC(=O)O)C(N)=O` [Gypyeydwe, reference compound] (H-G[dY][dP][dY][dE][dY][dD][dW][dE]-NH2), in the assay on 12ca5 [2], the “competitor concentration required to attenuate the recovery of DXXDY(A/S) peptides” value was 100 µM. In the assay on anti-HA mAb clone 12ca5, the IC50 stood at 62000 ± 8000 nM and the Kd worked out at 3000 nM.
